According to patent US20250332185A1, “Use of a New Therapeutic Combination to Treat Chronic Venous Insufficiency” (KÉRI PHARMA HUNGARY KFT., priority 2021, published 2025):
Like-named read-outs stand apart in the source and are kept apart here.

Legend:
[1] = test system: fasting homocysteine levels in healthy young women; details: healthy young women with normal homocysteine; folic acid 400 micrograms/day, vitamin B6 2 mg/day; daily for four weeks; cited from earlier work
homocysteine level [2] = assay: Observation test 2: homocysteine level determination; format: in vivo, human; details: median (25; 75 percentile); for homocysteine, Visit 2: after 12 weeks of therapy; for homocysteine, Visit 1: baseline before treatment, CEAP 6
Experimental: Data from a total of 60 people were analysed retrospectively. Patients attending outpatient care consecutively who met the inclusion criteria were included in the retrospective analysis. Patients all had venous circulatory disorders with a severity of disease corresponding to CEAP stage 6. The male:female ratio in the analysed population was 1:2. The data of a total of four different patient groups were analysed as follows. • Group 1: patients taking 1000 mg of diosmin daily (n=30) • 15 patients had homocysteine levels below the risk threshold (<12.5 μmol/L, normal homocysteinemia group). • 15 patients had homocysteine levels above the risk threshold (>12.5 μmol/L hyperhomocysteinemia group) • Group 2: patients taking a daily combination of 1000 mg diosmin+3 mg folic acid+20 mg vitamin B6 (diosmin plus) (30 patients) • 15 patients had homocysteine levels below the risk threshold (<12.5 μmol/L normal homocysteinemia group). • 15 patients had homocysteine levels above the risk threshold (>12.5 μmol/L hyperhomocysteinemia group) • Group 3: patients taking a combination of 3 mg folic acid+20 mg vitamin B6 (diosmin plus) daily (30 patients) • 15 patients had homocysteine levels below the risk threshold (<12.5 μmol/L normal homocysteinemia group). • 15 patients had homocysteine levels above the risk threshold (>12.5 μmol/L hyperhomocysteinemia group) The observation period was 12 weeks, during which time patients took the prescribed medication continuously. Before starting the medication treatment, a physical examination (to determine the CEAP stage of chronic venous insufficiency) and homocysteine level determination were performed. The area of the leg ulcer developed based on the venous circulatory disorder was also determined. At the end of the 12-week observation period, the tests were repeated. For continuous variables, normality tests were performed. Variables with a normal distribution (age) were characterised by the mean+SD, variables with a non-normal distribution (homocysteine level at visits 1 and 2, leg ulcer area at visits 1 and 2) were characterised by the median (25; 75 percentile). For comparisons between two subgroups, the difference in the values of variables with normal distribution by subgroup was tested by t test, and the difference in the values of variables with non-normal distribution by subgroup was tested by chi-squared test.

[3] = test system: patients with venous circulatory disorders, CEAP stage 6 (leg ulcer); assay: Observation test 2: area of leg ulcer after 12 weeks of therapy; format: in vivo, human; details: median (25; 75 percentile); for change in ulcer size: 1st visit - 2nd visit (positive = reduction), 12 weeks; for ulcer size, Visit 2: after 12 weeks of therapy; for ulcer size, Visit 1: baseline before treatment
Experimental: Data from a total of 60 people were analysed retrospectively. Patients attending outpatient care consecutively who met the inclusion criteria were included in the retrospective analysis. Patients all had venous circulatory disorders with a severity of disease corresponding to CEAP stage 6. The male:female ratio in the analysed population was 1:2. The data of a total of four different patient groups were analysed as follows. • Group 1: patients taking 1000 mg of diosmin daily (n=30) • 15 patients had homocysteine levels below the risk threshold (<12.5 μmol/L, normal homocysteinemia group). • 15 patients had homocysteine levels above the risk threshold (>12.5 μmol/L hyperhomocysteinemia group) • Group 2: patients taking a daily combination of 1000 mg diosmin+3 mg folic acid+20 mg vitamin B6 (diosmin plus) (30 patients) • 15 patients had homocysteine levels below the risk threshold (<12.5 μmol/L normal homocysteinemia group). • 15 patients had homocysteine levels above the risk threshold (>12.5 μmol/L hyperhomocysteinemia group) • Group 3: patients taking a combination of 3 mg folic acid+20 mg vitamin B6 (diosmin plus) daily (30 patients) • 15 patients had homocysteine levels below the risk threshold (<12.5 μmol/L normal homocysteinemia group). • 15 patients had homocysteine levels above the risk threshold (>12.5 μmol/L hyperhomocysteinemia group)
The observation period was 12 weeks, during which time patients took the prescribed medication continuously. Before starting the medication treatment, a physical examination (to determine the CEAP stage of chronic venous insufficiency) and homocysteine level determination were performed. The area of the leg ulcer developed based on the venous circulatory disorder was also determined.
At the end of the 12-week observation period, the tests were repeated. For continuous variables, normality tests were performed. Variables with a normal distribution (age) were characterised by the mean+SD, variables with a non-normal distribution (homocysteine level at visits 1 and 2, leg ulcer area at visits 1 and 2) were characterised by the median (25; 75 percentile). For comparisons between two subgroups, the difference in the values of variables with normal distribution by subgroup was tested by t test, and the difference in the values of variables with non-normal distribution by subgroup was tested by chi-squared test.
The effectiveness of the therapy was characterised by the change in the area of the leg ulcer. Factors determining the change in ulcer size were analysed using simple and complex linear regression. In the composite model, age and gender were significant regressors. […] The fit of the final composite linear model was characterised using the Ramsey RESET test and the Breusch-Pagan/Cook-Weisberg test. Model fit is indicated by a value of p>0.05. The composite model was also stratified according to baseline homocysteine level (normal vs. low), to investigate the interaction between baseline homocysteine level and the therapy used.

homocysteine level [4] = assay: Observation test 1: homocysteine level determination; format: in vivo, human; details: median (25; 75 percentile); for homocysteine, Visit 2: after 12 weeks of therapy; for homocysteine, Visit 1: baseline before treatment, CEAP 2-3
Experimental: The analysis was based on consecutive patient data from outpatients who met the inclusion criteria. All patients had venous circulatory disorders, with severity of disease corresponding to CEAP stage 2 and CEAP stage 3. The male:female ratio in the population analysed was 1:2 In total, data from four different patient groups were examined: • Group 1: patients taking 1000 mg of diosmin daily (n=45)· • 30 subjects had homocysteine levels below the risk threshold (<12.5 μmol/L normal homocysteinemia group)· • 15 subjects had homocysteine levels above the risk threshold (>12.5 μmol/L hyperhomocysteinemia group) • Group 2: patients taking a daily combination of 1000 mg diosmin+6 mg folic acid+20 mg vitamin B6 (diosmin plus) (45 patients)· • 30 subjects had homocysteine levels below the risk threshold (<12.5 μmol/L normal homocysteinemia group)· • 15 subjects had homocysteine levels above the risk threshold (>12.5 μmol/L hyperhomocysteinemia group) The observation period was 12 weeks, during which time patients took the prescribed medication continuously. Before starting the medication treatment, a physical examination (to determine the CEAP stage of chronic venous insufficiency) and homocysteine level determination were performed and a CIVIQ-20 questionnaire was filled out. At the end of the 12-week follow-up period, the tests were repeated. For continuous variables, normality testing was performed. Variables with a normal distribution (age, CIVIQ score at visits 1 and 2) were characterised by the mean+SD, while variables with a non-normal distribution (homocysteine level at visits 1 and 2) were characterised by the median (25; 75 percentile). Differences in the values of variables with normal distribution by subgroup was tested by t test, and difference in the values of variables with non-normal distribution by subgroup was tested by chi-squared test.

[5] = test system: patients with venous circulatory disorders, CEAP stage 2 and CEAP stage 3; assay: Observation test 1: CIVIQ-20 quality-of-life score after 12 weeks of therapy; format: in vivo, human; details: for CIVIQ change (score): Visit 1 score - Visit 2 score (negative = improvement), 12 weeks; for CIVIQ (score), Visit 2: after 12 weeks of therapy; for CIVIQ (score), Visit 2 / CIVIQ (score), Visit 1: mean ± SD; for CIVIQ (score), Visit 1: baseline before treatment
Experimental: The study analysed data from a total of 90 people retrospectively.
The analysis was based on consecutive patient data from outpatients who met the inclusion criteria. All patients had venous circulatory disorders, with severity of disease corresponding to CEAP stage 2 and CEAP stage 3. The male:female ratio in the population analysed was 1:2
In total, data from four different patient groups were examined: • Group 1: patients taking 1000 mg of diosmin daily (n=45)· • 30 subjects had homocysteine levels below the risk threshold (<12.5 μmol/L normal homocysteinemia group)· • 15 subjects had homocysteine levels above the risk threshold (>12.5 μmol/L hyperhomocysteinemia group) • Group 2: patients taking a daily combination of 1000 mg diosmin+6 mg folic acid+20 mg vitamin B6 (diosmin plus) (45 patients)· • 30 subjects had homocysteine levels below the risk threshold (<12.5 μmol/L normal homocysteinemia group)· • 15 subjects had homocysteine levels above the risk threshold (>12.5 μmol/L hyperhomocysteinemia group)
The observation period was 12 weeks, during which time patients took the prescribed medication continuously. Before starting the medication treatment, a physical examination (to determine the CEAP stage of chronic venous insufficiency) and homocysteine level determination were performed and a CIVIQ-20 questionnaire was filled out. At the end of the 12-week follow-up period, the tests were repeated. For continuous variables, normality testing was performed. Variables with a normal distribution (age, CIVIQ score at visits 1 and 2) were characterised by the mean+SD, while variables with a non-normal distribution (homocysteine level at visits 1 and 2) were characterised by the median (25; 75 percentile). Differences in the values of variables with normal distribution by subgroup was tested by t test, and difference in the values of variables with non-normal distribution by subgroup was tested by chi-squared test.
The factors determining the increase in CIVIQ score were analysed using simple and complex linear regression. In the composite model, age and gender were included as significant regressors. […] The fit of the final composite linear model was characterised using the Ramsey RESET test and the Breusch-Pagan/Cook-Weisberg test. Model fit is indicated by a value of p>0.05. The composite model was also stratified according to baseline homocysteine level (normal vs. low), to investigate the interaction between baseline homocysteine level and the therapy used.

[6] = test system: patients with venous ulcers; details: cited from earlier work
[7] = test system: homocysteine levels in untreated hypertensive patients; details: cited from earlier work; for homocysteine levels increased by: end of 4.5-year treatment
[8] = test system: systolic blood pressure in untreated hypertensive patients; details: interval in brackets, cited from earlier work
[9] = hyperhomocysteine group (>12.5 μmol/L)
[10] = normal homocysteine group (<12.5 μmol/L)

Cc1ncc(CO)c(CO)c1O.Cl [Vitamin B6, vitamin B6]
reduction of homocysteine levels [1]: no effect

COc1ccc(-c2cc(=O)c3c(O)cc(O[C@@H]4O[C@H](CO[C@@H]5O[C@@H](C)[C@H](O)[C@@H](O)[C@H]5O)[C@@H](O)[C@H](O)[C@H]4O)cc3o2)cc1O [diosmin]
homocysteine, Visit 2 (homocysteine level [2]; hyperhomocysteine group): 19.13 (18.75; 19.42) μmol/L
homocysteine, Visit 2 (homocysteine level [2]; normal homocysteine group): 10.89 (10.21; 11.17) μmol/L
homocysteine, Visit 1 (homocysteine level [2]; [9]): 20.73 (20.16; 21.21) μmol/L
homocysteine, Visit 1 (homocysteine level [2]; [10]): 11.82 (11.59; 12.24) μmol/L
change in ulcer size ([3]; hyperhomocysteine group): 2.61 (2.01; 3.29) cm^2
change in ulcer size ([3]; normal homocysteine group): 1.11 (0.64; 2.26) cm^2
ulcer size, Visit 2 ([3]; hyperhomocysteine group): 10.56 (10.28; 10.91) cm^2
ulcer size, Visit 2 ([3]; normal homocysteine group): 7.09 (6.12; 7.67) cm^2
ulcer size, Visit 1 ([3]; hyperhomocysteine group): 13.62 (12.44; 13.85) cm^2
ulcer size, Visit 1 ([3]; normal homocysteine group): 8.11 (7.07; 8.73) cm^2
homocysteine, Visit 2 (homocysteine level [4]; hyperhomocysteine group): 11.69 (11.52; 11.91) μmol/L
homocysteine, Visit 2 (homocysteine level [4]; normal homocysteine group): 7.39 (7.65; 7.80) μmol/L
homocysteine, Visit 1 (homocysteine level [4]; [9]): 14.74 (13.24; 15.79) μmol/L
homocysteine, Visit 1 (homocysteine level [4]; [10]): 8.00 (7.23; 8.83) μmol/L
CIVIQ change (score) ([5]; hyperhomocysteine group): −14.56 ± 15.86 score
CIVIQ change (score) ([5]; normal homocysteine group): −12.09 ± 1.23 score
CIVIQ (score), Visit 2 ([5]; hyperhomocysteine group): 79.71 ± 10.81 score
CIVIQ (score), Visit 2 ([5]; normal homocysteine group): 78.44 ± 8.75 score
CIVIQ (score), Visit 1 ([5]; hyperhomocysteine group): 65.14 ± 8.45 score
CIVIQ (score), Visit 1 ([5]; normal homocysteine group): 66.09 ± 9.91 score

Nc1nc2ncc(CNc3ccc(C(=O)N[C@@H](CCC(=O)O)C(=O)O)cc3)nc2c(=O)[nH]1 [folic acid]
reduction of homocysteine levels [1]: 11.5%
ulcer healing ([6]; chronic venous ulcer disease with hyperhomocysteinemia): accelerated ulcer healing
cure rate ([6]; group A: hyperhomocysteinemia, folic acid 1.2 mg/day for 12 months plus basic treatment, group B basic treatment only 63·33%, P<0.05): 78.75%

CCOC(=O)[C@H](CCc1ccccc1)N[C@@H](C)C(=O)N1CCC[C@H]1C(=O)O [enalapril]
homocysteine levels increased by ([7]; baseline homocysteine <10 μmol/L): 1.7 µmol/L
homocysteine levels increased by ([7]; baseline homocysteine between 10 and 15 μmol/L): 1.1 µmol/L
homocysteine levels decreased by ([7]; baseline homocysteine ≥15 μmol/L, median 4.5 years, 10 mg enalapril, 0.8 mg folic acid daily): 2.4 µmol/L
Reduction in systolic blood pressure ([8]; baseline homocysteine 10-<15 versus reference category <10): −0.77 (−1.53; −0.01) mm Hg
Reduction in systolic blood pressure ([8]; baseline homocysteine ≥15 versus reference category <10): −1.70 (−2.68; −0.72) mm Hg
